Active and inactive are the calls of the source. No cut-off for these calls is given here.
Key:
[1] = target: T1, NACHT, LRR and PYD domains-containing protein 1 (Homo sapiens) (UniProt Q9C000); experiment: Inhibition of NLRP1 inflammasome in Val-boroPro-induced human THP-M cells assessed as inhibition of IL-1beta level at 20 to 60 uM pretreated for 24 hrs followed by stimulated with LPS by ELISA; assay type: cell-based; conditions: dose 20-60 µM
T1 sequence (whole entry): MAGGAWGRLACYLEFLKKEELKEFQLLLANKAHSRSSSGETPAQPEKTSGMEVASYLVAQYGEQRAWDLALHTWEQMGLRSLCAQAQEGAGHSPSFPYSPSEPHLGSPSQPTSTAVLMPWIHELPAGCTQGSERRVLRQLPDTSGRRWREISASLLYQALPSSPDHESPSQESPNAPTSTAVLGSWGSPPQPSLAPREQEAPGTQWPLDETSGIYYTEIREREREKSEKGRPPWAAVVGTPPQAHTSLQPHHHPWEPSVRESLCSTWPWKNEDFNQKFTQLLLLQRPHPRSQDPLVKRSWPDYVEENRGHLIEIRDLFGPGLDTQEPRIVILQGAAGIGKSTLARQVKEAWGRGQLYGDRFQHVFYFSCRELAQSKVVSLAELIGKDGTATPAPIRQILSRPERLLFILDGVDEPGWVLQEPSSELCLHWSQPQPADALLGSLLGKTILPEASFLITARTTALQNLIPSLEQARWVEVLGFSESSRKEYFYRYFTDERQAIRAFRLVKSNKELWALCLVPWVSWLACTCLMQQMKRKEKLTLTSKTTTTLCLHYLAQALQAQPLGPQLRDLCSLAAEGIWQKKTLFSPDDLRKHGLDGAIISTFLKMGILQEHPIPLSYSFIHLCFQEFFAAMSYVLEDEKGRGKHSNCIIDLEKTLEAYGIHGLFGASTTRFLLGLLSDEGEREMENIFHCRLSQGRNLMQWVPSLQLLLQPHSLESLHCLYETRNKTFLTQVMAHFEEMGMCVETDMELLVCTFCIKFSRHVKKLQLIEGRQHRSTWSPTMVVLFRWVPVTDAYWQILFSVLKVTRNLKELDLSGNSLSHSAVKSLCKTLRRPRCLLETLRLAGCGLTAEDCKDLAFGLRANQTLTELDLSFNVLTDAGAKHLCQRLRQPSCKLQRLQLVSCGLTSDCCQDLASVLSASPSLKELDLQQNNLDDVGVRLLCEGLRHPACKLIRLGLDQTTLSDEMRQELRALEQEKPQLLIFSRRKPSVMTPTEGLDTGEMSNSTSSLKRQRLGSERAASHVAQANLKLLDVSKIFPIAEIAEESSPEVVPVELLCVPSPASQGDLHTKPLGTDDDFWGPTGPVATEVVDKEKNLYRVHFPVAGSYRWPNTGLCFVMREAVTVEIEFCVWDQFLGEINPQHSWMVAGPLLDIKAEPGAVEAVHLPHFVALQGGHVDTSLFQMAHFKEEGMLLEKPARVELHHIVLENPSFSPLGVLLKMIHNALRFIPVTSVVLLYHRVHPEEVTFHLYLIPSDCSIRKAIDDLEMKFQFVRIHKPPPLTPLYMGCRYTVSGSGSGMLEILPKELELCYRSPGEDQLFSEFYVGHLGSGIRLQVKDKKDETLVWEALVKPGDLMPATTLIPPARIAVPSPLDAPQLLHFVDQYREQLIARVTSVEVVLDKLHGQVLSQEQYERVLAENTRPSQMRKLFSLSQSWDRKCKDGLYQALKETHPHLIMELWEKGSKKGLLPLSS

Rattus norvegicus [2] = experiment: (§1) Anti-inflammatory activity against complete Freund's adjuvant (CFA)-induced arthritis rat model assessed as reduction in NLRP3 in rat synovium from the left rear ankle at 20 to 80 mg/kg, ip treated after 17 days of CFA challenge measured after 18 days (day 17 to 34) by immunofluorescence based assay relative to model group; assay type: functional, organism-based; conditions: dose 20-80 mg/kg, time 18.0 day
Rattus norvegicus [3] = experiment: Anti-inflammatory activity against complete Freund's adjuvant (CFA)-induced arthritis rat model assessed as recovery in degree of swelling in right hind paw at 20 to 80 mg/kg, ip treated after 17 days of CFA challenge measured after 18 days (day 17 to 34) relative to control; assay type: functional, organism-based; conditions: dose 20-80 mg/kg, time 18.0 day
[4] = Bioavailability in Sprague-Dawley rat at 20 mg/kg, ip measured upto 720 mins by LC-MS/MS analysis; assay type: ADME, organism-based; conditions: in vivo
[5] = Cytotoxicity against human THP-1 cells assessed as cellular proliferation inhibition measured after 48 hrs by MTT assay; assay type: toxicity, cell-based
[6] = MRT (0 to t) in Sprague-Dawley rat at 20 mg/kg, IG measured upto 1440 mins by LC-MS/MS analysis; assay type: ADME, organism-based; conditions: in vivo, po
Rattus norvegicus [7] = experiment: as §1, with “synovial hyperplasia” for “reduction in NLRP3”, “H and E staining” for “immunofluorescence”; assay type: functional, organism-based; conditions: dose 20-80 mg/kg, time 18.0 day
THP-M [8] = experiment: Induction of mitochondrial membrane potential loss in human THP-M cells pretreated for 24 hrs followed by stimulated with LPS for 3 hrs and ATP for 1 hr by Mitochondrial damage experiment; assay type: functional, cell-based; conditions: time 28.0 hrs
THP-M [9] = experiment: Effect on ASC (apoptosis-related speck-like protein containing a CARD) level in LPS/nigericin-induced human THP-M cells assessed as inhibition of pro-IL-1beta level at 20 to 60 uM pretreated for 24 hrs followed by stimulated with LPS for 3 hrs and ATP for 1 hr by Western blot analysis relative to control; assay type: functional, cell-based; conditions: dose 20-60 µM, time 28.0 hrs
Rattus norvegicus [10] = experiment: as §1, with “IL-1beta” for “NLRP3”; assay type: functional, organism-based; conditions: dose 20-80 mg/kg, time 18.0 day

inhibition [1]: inactive
bioavailability [4]: 11.5%
MRT last at 24 h [6]: 2.31 h
Compound: COCCCNC(=O)c1ccc(Cn2c(SCC3CCCCC3)nc3ccncc32)cc1
Activity (Rattus norvegicus [2]): Active
Activity (Rattus norvegicus [3]): Active
IC50 at 48 h [5]: > 100 µM
Activity (Rattus norvegicus [7]): Active
Activity (THP-M [8]): inactive
inhibition (THP-M [9]): inactive
Activity (Rattus norvegicus [10]): Active
